Consider two compounds from patent US20240091209A1, “COMPOSITIONS AND METHODS FOR TREATMENT OF HIDRADENITIS SUPPURATIVA” (SUZHOU KINTOR PHARMACEUTICALS, INC., priority 2021, published 2024).

Data set [1] has as its system hidradenitis suppurativa (HS). The experiment in a line: Study of Proxalutamide for the treatment of HS (Hurley Stage after 7 days). Format: in vivo, human. As to the method: (§1) Overview: Four subjects, 2 males and 2 females, were recruited to the Proxalutamide HS study. At baseline (day 0) all subjects were diagnosed by a dermatologist with HS Hurley Stage 3. All subjects presented HS in the axilla region. Two subjects (1 male and 1 female) were treated for 7 days with Proxalutamide monotherapy 200 mg daily and two subjects were treated for 7 days with Proxalutamide placebo monotherapy 200 mg daily
Efficacy Endpoint: Hurley Stage following 7 days of treatment.
Formula: Proxalutamie 200 mg q.d.
(§2) Results: Following 7 days of treatment with Proxalutamide 200 mg q.d., all four subjects returned to the clinic to be assessed by a dermatologist. On day 7 both subjects treated with Proxalutamie were diagnosed by a dermatologist with HS Hurley Stage 1. […] On day 7 both subjects treated with Proxalutamie placebo were diagnosed by a dermatologist with HS Hurley Stage 3.

Data set [2] deals with T1, androgen receptor (AR) (Homo sapiens, UniProt P10275).
T1 sequence (P10275 1-920): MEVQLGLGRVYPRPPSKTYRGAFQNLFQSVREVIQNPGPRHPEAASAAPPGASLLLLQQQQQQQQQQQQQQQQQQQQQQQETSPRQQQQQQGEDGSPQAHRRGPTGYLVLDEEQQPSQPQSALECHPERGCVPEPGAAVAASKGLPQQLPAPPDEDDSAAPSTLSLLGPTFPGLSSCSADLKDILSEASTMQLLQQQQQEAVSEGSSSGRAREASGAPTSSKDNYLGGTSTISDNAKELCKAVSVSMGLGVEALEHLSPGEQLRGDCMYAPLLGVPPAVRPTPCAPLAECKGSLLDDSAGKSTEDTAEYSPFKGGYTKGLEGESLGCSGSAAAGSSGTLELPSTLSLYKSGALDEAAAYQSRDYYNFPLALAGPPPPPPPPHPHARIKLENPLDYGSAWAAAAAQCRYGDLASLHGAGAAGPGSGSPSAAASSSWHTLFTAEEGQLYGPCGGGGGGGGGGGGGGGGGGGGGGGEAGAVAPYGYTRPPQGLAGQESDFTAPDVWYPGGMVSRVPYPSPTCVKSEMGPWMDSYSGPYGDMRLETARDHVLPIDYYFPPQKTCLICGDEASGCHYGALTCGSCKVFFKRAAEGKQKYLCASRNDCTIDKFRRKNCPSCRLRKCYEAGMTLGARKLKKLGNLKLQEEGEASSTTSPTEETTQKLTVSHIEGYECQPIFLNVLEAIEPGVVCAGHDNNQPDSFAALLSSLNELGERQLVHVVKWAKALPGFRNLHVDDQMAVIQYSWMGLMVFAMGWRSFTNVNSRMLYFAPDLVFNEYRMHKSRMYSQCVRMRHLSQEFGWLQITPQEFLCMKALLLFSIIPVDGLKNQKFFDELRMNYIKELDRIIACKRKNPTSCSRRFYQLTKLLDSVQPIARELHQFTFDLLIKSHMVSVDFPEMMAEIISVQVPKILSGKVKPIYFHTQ
The note with it: clinical evidence, no details given; cited from earlier work.

The conditions of data set [3]: men and women; cited from earlier work.
Data set [4] is described as follows: Adverse events in the Proxalutamide HS study. It counts as in vivo, human. The note with it: 200 mg q.d. for 7 days; 2 subjects. As for the experimental part: as §1, §2
For data set [5], the system named is hidradenitis suppurativa (HS). The conditions noted are these: 24 female patients; ethinyloestradiol 50 μg + cyproterone acetate 50 mg vs ethinyloestradiol 50 μg + norgestrel 500 μg; positive benefits in both groups; cited from earlier work.

“Also recorded” adds a separate entry of the source.

In the case of `CC1(C)C(=O)N(c2ccc(C#N)c(C(F)(F)F)c2F)C(=S)N1c1ccc(CCCc2ncco2)nc1` [Proxalutamide, proxalutamide], the “HS Hurley Stage diagnosed by a dermatologist on day 7” value in data set [1] (200 mg q.d. monotherapy for 7 days, 2 subjects (1 male, 1 female), axilla, baseline Hurley Stage 3, placebo subjects stayed at Stage 3) is 1. Moreover, the “Severity of HS compared to the placebo” value in data set [1] (within 7 days, 200 mg q.d.) is reported as “reduced the severity of HS”. The “Effect on AR expression and activity” value in data set [2] is “lowers AR expression and activity”. In addition, the “Safety in Phase II studies” value in data set [3] was “safe in both men and women”. Moreover, the “Adverse events reported by the subjects” value in data set [4] is “No adverse events; also recorded: without any adverse events”.

Turning to `CC(=O)O[C@]1(C(C)=O)CC[C@H]2[C@@H]3C=C(Cl)C4=CC(=O)[C@@H]5C[C@@H]5[C@]4(C)[C@H]3CC[C@@]21C` [cyproterone acetate], the “Benefit in HS versus ethinyloestradiol plus norgestrel” value in data set [5] is reported as “no statistically significant advantage”.
